In patent publication US20240299496A1, “DRUG FOR TREATING FATTY LIVER AND NONALCOHOLIC STEATOHEPATITIS” (Osaka University, priority 2021, published 2024):
Where no end group is shown, it is not given here.

Tested on: NASH model mice (MC4R-KO mice fed a high-fat diet)
Experiment: Body weight and liver weight of NASH model mice
Assay type: in vivo, mouse
Settings: 5 mg/kg tail vein injection twice a week for four weeks, t-test
From the text: Melanocortin-4 receptor knockout mice (hereinafter also referred to as “MC4R-KO mice,” genetic background: C57BL/6J) were provided by Dr. Joel K Elmquist of University of Texas, Medical Center.
Subsequently, NASH was induced in the mice by feeding a high-fat diet to the MC4R-KO mice, as detailed in the below reference. […] Later, the diet was switched from the normal diet to a high-fat diet (HFD) and the high-fat diet was fed for 20 weeks. Thereby, NASH was developed in the mice. • Itoh M, Suganami T, Nakagawa N, et al. Melanocortin 4 receptor-deficient mice as a novel mouse model of nonalcoholic steatohepatitis. Am J Pathol 2011; 179: 2454-63.
Here, CE-2 (manufactured by CLEA Japan, Inc.) was used as the normal diet, and Western Diet (manufactured by EPS EKISHIN Co., Ltd., containing 0.21% of cholesterol+41% kcal of milk fat) was used as the high-fat diet.
Experiments were carried out by dividing the mice into two groups of an HMGB1 peptide administration group (HMGB1 administration group) and a control group (normal saline; NS administration; CTRL administration group). […]
The mice were euthanized twenty weeks after initiating the high-fat diet, and arterial blood was collected from the heart of the mice. […] In all of the following statistical analyses, significance was calculated by a t-test.

MGKGDPKKPRGKMSSYAFFVQTCREEHKKKHPDASVNFSEFSKK [HMGB1 peptide]
change of the body weight (from initiating administration until completion of breeding, vs control group): significant differences were not observed | body weight (twenty weeks after initiating high-fat diet, vs control group (normal saline)): significant differences were not observed
